Assay results as given in patent publication US8158621B2, “Methods of treating or preventing autoimmune diseases with 2,4-pyrimidinediamine compounds” (Rigel Pharmaceuticals, Inc., priority 2002, dated 2012).

What follows are compounds tested on cultured human mast cells (CHMC) (assay: CHMC high cell density IgE activation: histamine). Settings: not given.
Type: cell-based
Experimental: (§1) After sensitizing, cells are counted, pelleted (1000 rpm, 5-10 minutes), and resuspended at 1-2 ×10^6 cells/ml in MT buffer. Add 100 ul of cell suspension to each well and 100 ul of compound dilutions. The final vehicle concentration is 0.5% DMSO. Incubate at 37° C. (5% CO2) for 1 hour. After 1 hour of compound treatment, stimulate cells with 6× anti-IgE. Mix wells with the cells and allow plates to incubate at 37° C. (5% CO2) for one hour. After 1 hour incubation, pellet cells (10 minutes, 1000 RPM) and collect 200 ul per well of the supernatant, being careful not to disturb pellet. Place the supernatant plate on ice. During the 7-hour step (see next) perform tryptase assay on supernatant that had been diluted 1:500. Resuspend cell pellet in 240 ul of CM media containing 0.5% DMSO and corresponding concentration of compound. Incubate CHMC cells for 7 hours at 37° C. (5% CO2). After incubation, pellet cells (1000 RPM, 10 minutes) and collect 225 ul per well and place in −80° C. until ready to perform ELISAS. ELISAS are performed on appropriately diluted samples (determined empirically for each donor cell population so that the sample measurement falls within the standard curve) following the supplier's instructions.
Compound `COC(=O)C1Cc2cc(Nc3ncc(F)c(Nc4ccc(OC(C)C)cc4)n3)ccc2O1` (centres unmarked) [Compound R926706] has an IC50 of over 10 µM. Compound `Cc1cc(Nc2nc(Nc3cccc(OCCN4CCNCC4)c3)ncc2F)cc(C)c1O` [Compound R945142] has an IC50 of over 10 µM.

The compounds below were run on cultured human mast cells (CHMC) (assay: CHMC low cell density IgE activation: LTC4 assay). Settings: anti-IgE activation, LTC4 release.
Type: cell-based
Experimental: Pellet CHMC cells (980 rpm, 10 min) and resuspend in pre-warmed MT. Add 65 ul of cells to each 96-well plate. Depending on the degranulation activity for each particular CHMC donor, load 1000-1500 cells/well. Mix four times followed by a 1 hr incubation at 37° C. […] Stimulate cells by adding 25 ul of 6× anti-IgE solution to the appropriate plates. Add 25 ul MT to un-stimulated control wells. Mix twice following addition of the anti-IgE. Incubate at 37° C. for 30 minutes. […] Spin plates at 1000 rpm for 10 min to pellet cells. Transfer 25 ul of supernatant to a 96-well black bottom plate and add 100 ul of freshly diluted tryptase substrate solution to each well. Incubate plates at room temperature for 30 min.
Leukotriene C4 (LTC4) is also quantified using an ELISA kit on appropriately diluted supernatant samples (determined empirically for each donor cell population so that the sample measurement falls within the standard curve) following the supplier's instructions.
`COC(=O)C1Cc2cc(Nc3ncc(F)c(Nc4ccc(OC(C)C)cc4)n3)ccc2O1` (centres unmarked) [Compound R926706] gave an IC50 of 0.078 µM.

The compounds below were run on cultured human mast cells (CHMC) (assay: CHMC high cell density IgE activation: IL-13). Settings: not given.
Type: cell-based
Experimental: as §1
`COC(=O)c1cc2cc(Nc3ncc(F)c(Nc4cccc(O)c4)n3)ccc2o1` [Compound R926614] gave an IC50 of 6.44 µM. `Cc1cc(Nc2nc(Nc3cccc(OCCN4CCNCC4)c3)ncc2F)cc(C)c1O` [Compound R945142] showed an IC50 of over 10 µM.

What follows are compounds tested on cultured human mast cells (CHMC) (assay: CHMC low cell density ionomycin activation: tryptase assay). Settings: Low Density CHMC, ionomycin activation, tryptase release; read-out: CHMC Ionomycin Tryptase IC50.
Type: cell-based
In the case of `COC(=O)c1cc2cc(Nc3ncc(F)c(Nc4cccc(O)c4)n3)ccc2o1` [Compound R926614], the IC50 is reported as over 10 µM. `COC(=O)C1Cc2cc(Nc3ncc(F)c(Nc4ccc(OC(C)C)cc4)n3)ccc2O1` (centres unmarked) [Compound R926706] was tested, and the IC50 was 2.41 µM.

Same assay, conditions: Low Density; read-out: CHMC Ionomycin Tryptase
In the case of `Cc1cc(Nc2nc(Nc3cccc(OCCN4CCNCC4)c3)ncc2F)cc(C)c1O` [Compound R945142], the IC50 is reported as over 10 µM.

These compounds were tested on Human Jurkat T-cells (clone N) (assay: Jurkat T-cell activation (anti-TCR, CD69 upregulation)). Settings: not given.
Type: cell-based
Outline: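 Readout is CD69 upregulation by flow cytometry (anti-CD69-APC, 20 min at 4 °C) after 20 h anti-TCR (C305, 500 ng/ml) stimulation at 37 °C.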
`COC(=O)c1cc2cc(Nc3ncc(F)c(Nc4cccc(O)c4)n3)ccc2o1` [Compound R926614] gave an IC50 of 6.54 µM. `COC(=O)C1Cc2cc(Nc3ncc(F)c(Nc4ccc(OC(C)C)cc4)n3)ccc2O1` (centres unmarked) [Compound R926706] showed an IC50 of over 10 µM. `CNC(=O)COc1cccc(Nc2ncc(F)c(Nc3ccc4cc[nH]c4c3)n2)c1` [Compound R926745] gave an IC50 of 1.48 µM. `Oc1cccc(Nc2nc(Nc3ccc(OCc4nc(-c5ccccc5)no4)cc3)ncc2F)c1` [Compound R935134] was tested, and the IC50 was over 10 µM. `Cc1noc(COc2ccc(Nc3nc(Nc4ccc(OC(C)C)cc4)ncc3F)cc2)n1` [Compound R935144] gave an IC50 of over 10 µM. For `Cc1cc(Nc2nc(Nc3cccc(OCCN4CCNCC4)c3)ncc2F)cc(C)c1O` [Compound R945142], the IC50 was 1.88 µM.

The compounds below were run on Primary T-cells (assay: Primary T-cell cytokine production (αCD3/αCD28): IL-2). Settings: read-out: 1° T-Cell IL2 IC50.
Type: cell-based, human
Experimental: 2E8-4E8 PBMC or proliferating T cells grown in rIL-2 from healthy human donors were suspended in PBS were spun down (1500 rpm, 8-10 minutes) and resuspended in 100 ml RPMI Complete media (1% Pen-Strep, 1% L-Glutamine, 10 mM HEPES). The cells were plated in T175 flasks (37° C., 5% CO2) and monocytes were allowed to adhere for 2-3 hours. After monocyte attachment, non-adherent cells were harvested, counted by hemocytometer, washed several times with PBS then resuspended in Yssels Complete Media (Modified IMDM Media with 1% Human AB Serum, 1% Pen-Strep, 1% L-Glutamine, 10 mM HEPES) at […]. 90 uL of the cell dilution were then added to compounds diluted to 2× in Yssel's media and incubated for 30 minutes at 37° C. (5% CO2). After this preincubation step the compound/cell mixture was transferred to stimulation plates, as described below.
Stimulation plates were prepared by coating 96 well plates with 5 μg/ml αCD3 (BD PharMingen, Catalog #555336)+10 μg/ml αCD28 (Beckman Coulter, Catalog #IM1376) in PBS (no Ca^2+/Mg^2+) at 37° C. (5% CO2) for at 3-5 hours. After incubation with the stimulation antibodies, the cocktail was removed and the plates washed 3 times with PBS prior to addition of the primary T cell/compound mixture.
The compound/cell mixture was transferred to the stimulation plates and incubated for 18 hr at 37° C. (5% CO2). After the cell stimulation, ˜150 μl supernatant were transferred from each well into 96-well filter plates (Coming PVDF Filter Plates) spun down (2000 rpm, 2-3 minutes) and either used immediately for ELISA or LUMINEX measurements or frozen down at −80° C. for future use.
IL-2 ELISAs were performed using the Quantikine Human IL-2 ELISA kit (R&D Systems, Catalog # D2050) as described by the manufacturer and absorption was measured on a spectrophotometer at 450 nm wavelength. Blank values were substracted and absorbances were converted to pg/mL based on the standard curve.
Luminex immunoassay multiplexing for TNF, IL-2, GMSCF, IL-4 and IFNg was performed essentially as described by the manufacturer (Upstate Biotechnology). Essentially 50 uL of sample was diluted into 50 uL assay diluent and 50 uL incubation buffer, then incubated with 100 uL of the diluted detection antibody for 1 hr at RT in the dark. The filter plate was washed 2× in Wash Buffer, then incubated with 100 uL of the diluted secondary reagent (SAV-RPE) for 30 min at RT in the dark. Finally the plates were washed 3 times and bead identification and RPE fluorescent measured by the Luminex instrument.
Varied concentrations of compound were compared to solvent only to determine the inhibition of T-cell activation IC50 of each compound.
`CNC(=O)COc1cccc(Nc2ncc(F)c(Nc3ccc4cc[nH]c4c3)n2)c1` [Compound R926745] showed an IC50 of 1.5 µM. `Oc1cccc(Nc2nc(Nc3ccc(OCc4nc(-c5ccccc5)no4)cc3)ncc2F)c1` [Compound R935134] was tested, and the IC50 was 36.1 µM. In the case of `Cc1noc(COc2ccc(Nc3nc(Nc4ccc(OC(C)C)cc4)ncc3F)cc2)n1` [Compound R935144], the IC50 is reported as 13.3 µM.

These compounds were tested on cultured human mast cells (CHMC) (assay: CHMC high cell density IgE activation: LTC4). Settings: not given.
Type: cell-based
Experimental: as §1
For `COC(=O)C1Cc2cc(Nc3ncc(F)c(Nc4ccc(OC(C)C)cc4)n3)ccc2O1` (centres unmarked) [Compound R926706], the IC50 was 1.49 µM.

These compounds were tested on cultured human mast cells (CHMC) (assay: CHMC high cell density IgE activation: hexos). Settings: not given.
Type: cell-based
Experimental: as §1
Add 50 uL of BMMC cell supernatant (see above) to the hexoseaminidase substrate, place at 37° C. for 30 minutes and read the plate at 5, 10, 15, and 30 minutes on a spectrophotometer.
In the case of `COC(=O)c1cc2cc(Nc3ncc(F)c(Nc4cccc(O)c4)n3)ccc2o1` [Compound R926614], the IC50 is reported as over 10 µM. `COC(=O)C1Cc2cc(Nc3ncc(F)c(Nc4ccc(OC(C)C)cc4)n3)ccc2O1` (centres unmarked) [Compound R926706] gave an IC50 of over 2 µM. For `Cc1cc(Nc2nc(Nc3cccc(OCCN4CCNCC4)c3)ncc2F)cc(C)c1O` [Compound R945142], the IC50 was over 2 µM.

These compounds were tested on cultured human mast cells (CHMC) (assay: CHMC low cell density IgE activation: tryptase assay). Settings: Low Density CHMC, anti-IgE activation, tryptase release; read-out: CHMC anti-IgE Tryptase IC50.
Type: cell-based
Outline: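 Read-out: tryptase released into supernatant, measured by substrate turnover over 30 min at RT. Low-density CHMC (1000-1500 cells/well, per donor degranulation activity) in MT buffer, 1 hr at 37° C, then anti-IgE challenge 30 min at 37° C.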
Compound `COC(=O)c1cc2cc(Nc3ncc(F)c(Nc4cccc(O)c4)n3)ccc2o1` [Compound R926614] has an IC50 of 0.228 µM. With `COC(=O)C1Cc2cc(Nc3ncc(F)c(Nc4ccc(OC(C)C)cc4)n3)ccc2O1` (centres unmarked) [Compound R926706] the IC50 was 0.07 µM.

What follows are compounds tested on cultured human mast cells (CHMC) (assay: CHMC high cell density IgE activation: TNFalpha). Settings: read-out: CHMC high density TNF-alpha.
Type: cell-based
Experimental: as §1
`COC(=O)c1cc2cc(Nc3ncc(F)c(Nc4cccc(O)c4)n3)ccc2o1` [Compound R926614] showed an IC50 of over 10 µM. Work on `COC(=O)C1Cc2cc(Nc3ncc(F)c(Nc4ccc(OC(C)C)cc4)n3)ccc2O1` (centres unmarked) [Compound R926706] yielded an IC50 of over 10 µM. For `Cc1cc(Nc2nc(Nc3cccc(OCCN4CCNCC4)c3)ncc2F)cc(C)c1O` [Compound R945142], the IC50 was over 2 µM.

The compounds below were run on cultured human mast cells (CHMC) (assay: CHMC high cell density IgE activation: tryptase). Settings: not given.
Type: cell-based
Experimental: as §1
Compound `COC(=O)c1cc2cc(Nc3ncc(F)c(Nc4cccc(O)c4)n3)ccc2o1` [Compound R926614] has an IC50 of over 10 µM. For `COC(=O)C1Cc2cc(Nc3ncc(F)c(Nc4ccc(OC(C)C)cc4)n3)ccc2O1` (centres unmarked) [Compound R926706], the IC50 was over 10 µM. With `Cc1cc(Nc2nc(Nc3cccc(OCCN4CCNCC4)c3)ncc2F)cc(C)c1O` [Compound R945142] the IC50 was over 2 µM.
